Laboratory results reported in patent US20230107642A1 (Erasca, Inc., priority 2020, published 2023).

Target: T1, Cys12 of the KRAS 4B G12C protein (Homo sapiens, UniProt P01116, G12C)
T1 construct: This protein contained 188 amino acids in total, including an N-terminal 6-Histidine tag; made in house; host or cells: E. coli BL21
Experiment: In vitro covalent adduct formation (CAF) assay, LC-MS intact mass
Assay type: binding
Conditions: for % CAF 10 uM @ 60 min: 10 uM compound; for CAF (% after 1 hour): 10 μM compound
Method in brief: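 GDP-loaded (>95%) His-TEV-tagged KRAS 4B G12C (residues 1–169), 5 μM in TBS pH 7.4, incubated with 10 μM compound (4% DMSO) at 22° C for one hour. Intact-protein LC-MS gave free:adduct ratios, reported as percent protein modified; duplicate runs.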

% CAF 10 uM @ 60 min (60 min) [%]	Structure (SMILES)	also measured
66.2	C=CC(=O)N1[C@H](C)CN(c2nc(=O)n3c4c(c(-c5ccc(F)c(Cl)c5)c(C(F)(F)F)cc24)SC[C@@H]3CN2CCN(CC)CC2)C[C@@H]1C [Example 1373, (S)-7-((3S,5R)-4-acryloyl-3,5-dimethylpiperazin-1-yl)-10-(3-chloro-4-fluorophenyl)-3-((4ethylpiperazin-1-yl)methyl)-9-(trifluoromethyl)-2,3-dihydro-5H-[1,4]thiazino[2,3,4-ij]quinazolin-5-one]	
71.4	C=CC(=O)N1[C@H](C)CN(c2nc(=O)n3c4c(c(-c5cc(Cl)c(F)cc5F)c(C(F)(F)F)cc24)SCC2(COC2)C3)C[C@@H]1C (atropisomer, axis not shown) [Example 1361b]	
92	C=CC(=O)N1C[C@H](C)N(c2nc(=O)n3c4c(c(-c5cc(O)c(F)cc5F)c(C(F)(F)F)cc24)SCC2(COC2)C3)C[C@H]1C [Example 1454, 8′-((2S,5R)-4-acryloyl-2,5-dimethylpiperazin-1-yl)-11′-(2,4-difluoro-5-hydroxyphenyl)-10′-(trifluoromethyl)-2′H,4′H,6′H-spiro[oxetane-3,3′-[1,4]thiazepino[2,3,4-ij]quinazolin]-6′-one]	
87	C=CC(=O)N1[C@H](C)CN(c2nc(=O)n3c4c(c(-c5cc(Cl)c(F)cc5F)c(C(F)(F)F)cc24)SCC(CO)(CO)C3)C[C@@H]1C [Example 1437, 8-((3S,5R)-4-acryloyl-3,5-dimethylpiperazin-1-yl)-11-(5-chloro-2,4-difluorophenyl)-3,3-bis(hydroxymethyl)-10-(trifluoromethyl)-3,4-dihydro-2H,6H-[1,4]thiazepino[2,3,4-ij]quinazolin-6-one]	
96	C=CC(=O)N1[C@H](C)CN(c2nc(=O)n3c4c(c(-c5ccc(F)cc5)c(C(F)(F)F)cc24)SC[C@@H]3CN2CCN(CC)CC2)C[C@@H]1C [Example 1344, (S)-7-((3S,5R)-4-acryloyl-3,5-dimethylpiperazin-1-yl)-3-((4-ethylpiperazin-1-yl)methyl)-10-(4-fluorophenyl)-9-(trifluoromethyl)-2,3-dihydro-5H-[1,4]thiazino[2,3,4-ij]quinazolin-5-one]	
95.4	C=CC(=O)N1CCN(c2nc(=O)n3c4c(c(-c5cc(Cl)c(F)cc5F)c(C(F)(F)F)cc24)SC[C@@H]3CN2C[C@@H]3C[C@H]2CO3)CC1 [Example 1311]	
95.7	C=CC(=O)N1[C@H](C)CN(c2nc(=O)n3c4c(c(-c5ccc(F)cc5)c(C(F)(F)F)cc24)SC[C@@H]3C)C[C@@H]1C [Example 1419, (S)-7-((3S,5R)-4-acryloyl-3,5-dimethylpiperazin-1-yl)-10-(4-fluorophenyl)-3-methyl-9-(trifluoromethyl)-2H-[1,4]thiazino[2,3,4-ij]quinazolin-5(3H)-one]	
81.4	C=CC(=O)N1[C@H](C)CN(c2nc(=O)n3c4c(c(-c5ccc(F)cc5F)c(C(F)(F)F)cc24)SC[C@@H]3CN(C)C)C[C@@H]1C (atropisomer, axis not shown) [Example 1325, (3S,10S)-7-((3S,5R)-4-acryloyl-3,5-dimethylpiperazin-1-yl)-10-(2,4-difluorophenyl)-3-((dimethylamino)methyl)-9-(trifluoromethyl)-2,3-dihydro-5H-[1,4]thiazino[2,3,4-ij]quinazolin-5-one]	
54	C=CC(=O)N1[C@H](C)CN(c2nc(=O)n3c4c(c(-c5cc(Cl)c(F)cc5F)c(C(F)(F)F)cc24)SC[C@@H]3CN2CC[C@H](F)C2)C[C@@H]1C (atropisomer, axis not shown) [Example 1438, (3S,10S)-7-((3S,5R)-4-acryloyl-3,5-dimethylpiperazin-1-yl)-10-(5-chloro-2,4-difluorophenyl)-3-(((S)-3-fluoropyrrolidin-1-yl)methyl)-9-(trifluoromethyl)-2,3-dihydro-5H-[1,4]thiazino[2,3,4-ij]quinazolin-5-one]	

The next lines start with the compound.

Structure (SMILES)	% CAF 10 uM @ 60 min (60 min) [%]	also measured
C=CC(=O)N1[C@H](C)CN(c2nc(=O)n3c4c(c(-c5cc(Cl)c(F)cc5F)c(C(F)(F)F)cc24)SC[C@@H](OCC)C3)C[C@@H]1C [Example 1206, (3S)-8-((3S,5R)-4-acryloyl-3,5-dimethylpiperazin-1-yl)-11-(5-chloro-2,4-difluorophenyl)-3-ethoxy-10-(trifluoromethyl)-3,4-dihydro-2H,6H-[1,4]thiazepino[2,3,4-ij]quinazolin-6-one]		CAF (% after 1 hour): 92%
C=CC(=O)N1C2COCC1CN(c1nc(=O)n3c4c(c(-c5ccc(F)cc5)c(C(F)(F)F)cc14)SC[C@@H]3COC)C2 [Example 1384, (3S)-7-(9-acryloyl-3-oxa-7,9-diazabicyclo[3.3.1]nonan-7-yl)-10-(4-fluorophenyl)-3-(methoxymethyl)-9-(trifluoromethyl)-2,3-dihydro-5H-[1,4]thiazino[2,3,4-ij]quinazolin-5-one]	77.8	
C=CC(=O)N1[C@H](C)CN(c2nc(=O)n3c4c(c(-c5cc(Cl)c(F)cc5F)c(C(F)(F)F)cc24)SC[C@@H]3COC)C[C@@H]1C (single isomer, unassigned) [Example 1139]		% CAF 10 uM @ 60 min (60 min incubation): 95.9%
C=CC(=O)N1CCN(c2nc(=O)n3c4c(c(-c5cc(Cl)c(F)cc5F)c(C(F)(F)F)cc24)SC[C@H](OCOC)C3)CC1 [Example 1008, (3R)-8-(4-acryloylpiperazin-1-yl)-11-(5-chloro-2,4-difluorophenyl)-3-(methoxymethoxy)-10-(trifluoromethyl)-3,4-dihydro-2H,6H-[1,4]thiazepino[2,3,4-ij]quinazolin-6-one]		CAF (% binding after 60 min): 92%
C=CC(=O)N1C[C@H](C)N(c2nc(=O)n3c4c(c(-c5cc(Cl)c(F)cc5F)c(C(F)(F)F)cc24)SCC2(CCOCC2)C3)C[C@H]1C [Example 1435, 8′-((2S,5R)-4-acryloyl-2,5-dimethylpiperazin-1-yl)-11′-(5-chloro-2,4-difluorophenyl)-10′-(trifluoromethyl)-2,3,5,6-tetrahydro-2′H,4′H,6′H-spiro[pyran-4,3′-[1,4]thiazepino[2,3,4-ij]quinazolin]-6′-one]	84	
C=CC(=O)N1[C@H](C)CN(c2nc(=O)n3c4c(c(-c5cc(Cl)c(F)cc5F)c(C(F)(F)F)cc24)SC[C@@H](N2CCCC2)C3)C[C@@H]1C (atropisomer, axis not shown) [Example 1137, (3S,11R)-8-((3S,5R)-4-acryloyl-3,5-dimethylpiperazin-1-yl)-11-(5-chloro-2,4-difluorophenyl)-3-(pyrrolidin-1-yl)-10-(trifluoromethyl)-3,4-dihydro-2H,6H-[1,4]thiazepino [2,3,4-ij]quinazolin-6-one]		% CAF 10 uM @ 60 min (60 min incubation): 83.4%
C=CC(=O)N1[C@H](C)CN(c2nc(=O)n3c4c(c(-c5ccc(F)c(Cl)c5)c(C(F)(F)F)cc24)SC[C@H](OCOC)C3)C[C@@H]1C [Example 1013, (R)-8-((3S,5R)-4-acryloyl-3,5-dimethylpiperazin-1-yl)-11-(3-chloro-4-fluorophenyl)-3-(methoxymethoxy)-10-(trifluoromethyl)-3,4-dihydro-2H,6H-[1,4]thiazepino[2,3,4-ij]quinazolin-6-one]		CAF (% binding after 60 min): 95%
C=CC(=O)N1CCN(c2nc(=O)n3c4c(c(-c5ccc(F)cc5)c(C(F)(F)F)cc24)SC[C@@H]3CN2CCN(C3CC3)CC2)CC1 [Example 1321, (S)-7-(4-acryloylpiperazin-1-yl)-3-((4-cyclopropylpiperazin-1-yl)methyl)-10-(4-fluorophenyl)-9-(trifluoromethyl)-2H-[1,4]thiazino[2,3,4-ij]quinazolin-5(3H)-one]	99.3	
C=CC(=O)N1[C@H](C)CN(c2nc(=O)n3c4c(c(-c5cc(Cl)c(F)cc5F)c(C(F)(F)F)cc24)SCC2(CCC2)C3)C[C@@H]1C [Example 1238, 8′-((3S,5R)-4-acryloyl-3,5-dimethylpiperazin-1-yl)-11′-(5-chloro-2,4-difluorophenyl)-10′-(trifluoromethyl)-2′H,4′H,6′H-spiro[cyclobutane-1,3′-[1,4]thiazepino[2,3,4-ij]quinazolin]-6′-one]		CAF (% after 1 hour): 95%
C=CC(=O)N1CCN(c2nc(=O)n3c4c(c(-c5cc(Cl)c(F)cc5F)c(C(F)(F)F)cc24)SC[C@@H]3COC)CC1 (atropisomer, axis not shown) [Example 1108, (3S,10S)-7-(4-acryloylpiperazin-1-yl)-10-(5-chloro-2,4-difluorophenyl)-3-(methoxymethyl)-9-(trifluoromethyl)-2,3-dihydro-5H-[1,4]thiazino[2,3,4-ij]quinazolin-5-one]		% CAF 10 uM @ 60 min (60 min incubation): 85%
C=CC(=O)N1C2CCC1CN(c1nc(=O)n3c4c(c(-c5cc(Cl)c(F)cc5F)c(C(F)(F)F)cc14)SC[C@@H]3COC)C2 [Example 1395, (3S,10S)-7-((1R,5S)-8-acryloyl-3,8-diazabicyclo[3.2.1]octan-3-yl)-10-(5-chloro-2,4-difluorophenyl)-3-(methoxymethyl)-9-(trifluoromethyl)-2,3-dihydro-5H-[1,4]thiazino[2,3,4-ij]quinazolin-5-one]	17.3	
C=CC(=O)N1CCN(c2nc(=O)n3c4c(c(-c5ccc(F)cc5F)c(C(F)(F)F)cc24)SC[C@@H](OCCOC)C3)CC1 [Example 1019, (3S)-8-(4-acryloylpiperazin-1-yl)-11-(2,4-difluorophenyl)-3-(2-methoxyethoxy)-10-(trifluoromethyl)-3,4-dihydro-2H,6H-[1,4]thiazepino[2,3,4-ij]quinazolin-6-one]		CAF (% binding after 60 min): 97%
C=CC(=O)N1[C@H](C)CN(c2nc(=O)n3c4c(c(-c5ccc(F)cc5F)c(C(F)(F)F)cc24)SC[C@@H](OCOC)C3)C[C@@H]1C [Example 1012, (3S)-8-((3S,5R)-4-acryloyl-3,5-dimethylpiperazin-1-yl)-11-(2,4-difluorophenyl)-3-(methoxymethoxy)-10-(trifluoromethyl)-3,4-dihydro-2H,6H-[1,4]thiazepino[2,3,4-ij]quinazolin-6-one]		CAF (% binding after 60 min): 95%
